Assay results taken from publication PMC5218480 (PLoS ONE, 2017).

System: MV-4-11 cells
Assay: Gene expression microarray analysis (Affymetrix PrimeView) and GSEA
Assay type: cell-based, human
Parameters: RFU PODN (11730768_x_at) / Fold change /veh PODN (11730768_x_at) / RFU LINC00158 (11744669_a_at) / Fold change /veh LINC00158 (11744669_a_at) / RFU DUSP10 (11751237_a_at) / Fold change /veh DUSP10 (11751237_a_at) / RFU ID3 (11757404_x_at) / Fold change /veh ID3 (11757404_x_at) / RFU PLEKHG5 (11737974_s_at) / Fold change /veh PLEKHG5 (11737974_s_at) / RFU LRRC4B (11730491_at) / Fold change /veh LRRC4B (11730491_at) / RFU GIMAP4 (11747438_a_at) / Fold change /veh GIMAP4 (11747438_a_at) / RFU KRT8 (11758183_x_at) / Fold change /veh KRT8 (11758183_x_at) / RFU CNN1 (11734310_a_at) / Fold change /veh CNN1 (11734310_a_at) / RFU VPS37D (11726825_at) / Fold change /veh VPS37D (11726825_at) / RFU C10orf10 (11716522_x_at) / Fold change /veh C10orf10 (11716522_x_at) / RFU KIR2DL2 /// KIR2DL4 /// KIR2DL5A /// KIR2DL5B /// KIR2DS1 /// KIR2DS2 /// KIR2DS3 /// KIR2DS4 /// KIR3DL3 /// KIR3DL3 /// KIR3DS1 (11738374_at) / Fold change /veh KIR2DL2 /// KIR2DL4 /// KIR2DL5A /// KIR2DL5B /// KIR2DS1 /// KIR2DS2 /// KIR2DS3 /// KIR2DS4 /// KIR3DL3 /// KIR3DL3 /// KIR3DS1 (11738374_at) / RFU C1QL1 (11718748_at) / Fold change /veh C1QL1 (11718748_at) / RFU TMPRSS4 (11747572_a_at) / Fold change /veh TMPRSS4 (11747572_a_at) / RFU HAMP (11756126_x_at) / Fold change /veh HAMP (11756126_x_at) / RFU RNFT2 (11725882_a_at) / Fold change /veh RNFT2 (11725882_a_at) / RFU NR4A2 (11747474_a_at) / Fold change /veh NR4A2 (11747474_a_at) / RFU ABCC12 (11746883_a_at) / Fold change /veh ABCC12 (11746883_a_at) / RFU TMEM136 (11760407_x_at) / Fold change /veh TMEM136 (11760407_x_at) / RFU CLDN22 /// WWC2 (11732394_at) / Fold change /veh CLDN22 /// WWC2 (11732394_at) / RFU HLA-DPB1 (11760878_x_at) / Fold change /veh HLA-DPB1 (11760878_x_at) / RFU SPINT1 (11716480_a_at) / Fold change /veh SPINT1 (11716480_a_at) / RFU GAP43 (11754022_s_at) / Fold change /veh GAP43 (11754022_s_at) / RFU A4GNT (11735810_at) / Fold change /veh A4GNT (11735810_at) / RFU PRB3 (11715151_x_at) / Fold change /veh PRB3 (11715151_x_at) / RFU TUBB4B (11761932_at) / Fold change /veh TUBB4B (11761932_at) / RFU CAPN14 (11732068_a_at) / Fold change /veh CAPN14 (11732068_a_at) / RFU TMCC2 (11721928_a_at) / Fold change /veh TMCC2 (11721928_a_at) / RFU IRGQ (11745062_a_at) / Fold change /veh IRGQ (11745062_a_at) / RFU FAM174B (11720279_a_at) / Fold change /veh FAM174B (11720279_a_at) / RFU TMPRSS4 (11748680_a_at) / Fold change /veh TMPRSS4 (11748680_a_at) / RFU FAM212B (11763350_a_at) / Fold change /veh FAM212B (11763350_a_at) / RFU PLEKHG5 (11743358_a_at) / Fold change /veh PLEKHG5 (11743358_a_at) / RFU ZSCAN30 (11745921_a_at) / Fold change /veh ZSCAN30 (11745921_a_at) / RFU CMKLR1 (11741424_a_at) / Fold change /veh CMKLR1 (11741424_a_at) / RFU LOC101060620 /// MAPK8IP1 (11723275_at) / Fold change /veh LOC101060620 /// MAPK8IP1 (11723275_at) / RFU SPTSSB (11747773_x_at) / Fold change /veh SPTSSB (11747773_x_at) / RFU PRSS12 (11739890_at) / Fold change /veh PRSS12 (11739890_at) / RFU BIN1 (11741810_x_at) / Fold change /veh BIN1 (11741810_x_at) / RFU WNT11 (11732464_a_at) / Fold change /veh WNT11 (11732464_a_at) / RFU C10orf10 (11716521_a_at) / Fold change /veh C10orf10 (11716521_a_at) / RFU C5orf56 (11738089_at) / Fold change /veh C5orf56 (11738089_at) / RFU CYB561 (11721691_x_at) / Fold change /veh CYB561 (11721691_x_at) / RFU ANKRD19P (11752326_a_at) / Fold change /veh ANKRD19P (11752326_a_at) / RFU OR2T12 /// OR2T33 /// OR2T8 (11738714_s_at) / Fold change /veh OR2T12 /// OR2T33 /// OR2T8 (11738714_s_at) / RFU VCAN (11748164_a_at) / Fold change /veh VCAN (11748164_a_at) / RFU JSRP1 (11732532_at) / Fold change /veh JSRP1 (11732532_at) / RFU KRTAP10-11 (11738290_x_at) / Fold change /veh KRTAP10-11 (11738290_x_at) / RFU MYO3A (11730013_a_at) / Fold change /veh MYO3A (11730013_a_at) / RFU EBF3 (11725865_a_at) / Fold change /veh EBF3 (11725865_a_at) / RFU CAMK2N1 (11719241_x_at) / Fold change /veh CAMK2N1 (11719241_x_at) / RFU C5orf56 (11738088_a_at) / Fold change /veh C5orf56 (11738088_a_at) / RFU OLFML3 (11715873_a_at) / Fold change /veh OLFML3 (11715873_a_at) / RFU LOC100653217 /// NTM (11731650_a_at) / Fold change /veh LOC100653217 /// NTM (11731650_a_at) / RFU MAPK11 (11762145_a_at) / Fold change /veh MAPK11 (11762145_a_at) / RFU FIZ1 (11724087_x_at) / Fold change /veh FIZ1 (11724087_x_at) / RFU OASL (11726364_x_at) / Fold change /veh OASL (11726364_x_at) / RFU SOX15 (11748057_x_at) / Fold change /veh SOX15 (11748057_x_at) / RFU CD79A (11719716_a_at) / Fold change /veh CD79A (11719716_a_at) / RFU HIST1H1D (11736915_at) / Fold change /veh HIST1H1D (11736915_at) / RFU CASKIN2 (11723855_a_at) / Fold change /veh CASKIN2 (11723855_a_at) / RFU LOC730098 (11760151_x_at) / Fold change /veh LOC730098 (11760151_x_at) / RFU OR4N2 (11742367_at) / Fold change /veh OR4N2 (11742367_at) / RFU PRRT2 (11749266_a_at) / Fold change /veh PRRT2 (11749266_a_at) / RFU SNX32 (11753110_a_at) / Fold change /veh SNX32 (11753110_a_at) / RFU CDHR5 (11726645_a_at) / Fold change /veh CDHR5 (11726645_a_at) / RFU RCAN1 (11760418_a_at) / Fold change /veh RCAN1 (11760418_a_at) / RFU FAM167A (11723789_a_at) / Fold change /veh FAM167A (11723789_a_at) / RFU FAM26E (11764081_at) / Fold change /veh FAM26E (11764081_at) / RFU ISYNA1 (11749810_s_at) / Fold change /veh ISYNA1 (11749810_s_at) / RFU ACY1 (11761880_at) / Fold change /veh ACY1 (11761880_at) / RFU 11764098_at / Fold change /veh 11764098_at / RFU SAMD14 (11745864_x_at) / Fold change /veh SAMD14 (11745864_x_at) / RFU NPB (11741838_a_at) / Fold change /veh NPB (11741838_a_at) / RFU TMPRSS6 (11731388_a_at) / Fold change /veh TMPRSS6 (11731388_a_at) / RFU KRTAP10-2 (11738614_at) / Fold change /veh KRTAP10-2 (11738614_at) / RFU ARHGAP8 /// PRR5-ARHGAP8 (11727945_x_at) / Fold change /veh ARHGAP8 /// PRR5-ARHGAP8 (11727945_x_at) / RFU KRTAP5-7 /// NADSYN1 (11734609_at) / Fold change /veh KRTAP5-7 /// NADSYN1 (11734609_at) / RFU RASL12 (11751679_a_at) / Fold change /veh RASL12 (11751679_a_at) / RFU CDKN2B (11736163_a_at) / Fold change /veh CDKN2B (11736163_a_at) / RFU PRF1 (11729649_at) / Fold change /veh PRF1 (11729649_at) / RFU, ZNF638 /// ZNF638-IT1 / Fold change vs veh, ZNF638 /// ZNF638-IT1 / RFU, PANK3 / Fold change vs veh, PANK3 / RFU, SH3YL1 / Fold change vs veh, SH3YL1 / RFU, ZEB2 / Fold change vs veh, ZEB2 / RFU, NRIP1 / Fold change vs veh, NRIP1 / RFU, PTTG1IP / Fold change vs veh, PTTG1IP / RFU, CAPN2 / Fold change vs veh, CAPN2 / RFU, MED14 / Fold change vs veh, MED14 / RFU, SNORA58 / Fold change vs veh, SNORA58 / RFU, C1orf63 / Fold change vs veh, C1orf63 / RFU, LRRFIP1 / Fold change vs veh, LRRFIP1 / RFU, NDUFAF7 / Fold change vs veh, NDUFAF7 / RFU, SLC12A2 / Fold change vs veh, SLC12A2 / RFU, IBTK / Fold change vs veh, IBTK / RFU, ESF1 / Fold change vs veh, ESF1 / Fold change vs veh, TMEM50B / RFU, TAOK1 / Fold change vs veh, TAOK1 / RFU, ACBD3 / Fold change vs veh, ACBD3 / RFU, TMA16 / Fold change vs veh, TMA16 / RFU, RWDD3 / Fold change vs veh, RWDD3 / RFU, BCAT1 / Fold change vs veh, BCAT1 / RFU, EDEM3 / Fold change vs veh, EDEM3 / RFU, TMEM33 / Fold change vs veh, TMEM33 / RFU, WDR75 / Fold change vs veh, WDR75 / RFU, AHCTF1 / Fold change vs veh, AHCTF1 / RFU, TFRC / Fold change vs veh, TFRC / RFU, ZDHHC17 / Fold change vs veh, ZDHHC17 / RFU, NOM1 / Fold change vs veh, NOM1 / RFU, ARL8B / Fold change vs veh, ARL8B / RFU, ZBTB11 / Fold change vs veh, ZBTB11 / RFU, TAMM41 / Fold change vs veh, TAMM41 / RFU, KIAA1704 /// LOC100996395 / Fold change vs veh, KIAA1704 /// LOC100996395 / RFU, ING1 / Fold change vs veh, ING1 / RFU, TRMT61B / Fold change vs veh, TRMT61B / RFU, FUBP3 / Fold change vs veh, FUBP3 / RFU, TP53 / Fold change vs veh, TP53 / RFU, TNKS2 / Fold change vs veh, TNKS2 / RFU, ZFP14 / Fold change vs veh, ZFP14 / RFU, ACTR2 / Fold change vs veh, ACTR2 / RFU, PPP3R1 / Fold change vs veh, PPP3R1 / RFU, PIK3R1 / Fold change vs veh, PIK3R1 / RFU, HNRNPA1 / Fold change vs veh, HNRNPA1 / RFU, RNF170 / Fold change vs veh, RNF170 / RFU, ZNF28 / Fold change vs veh, ZNF28 / RFU, RNGTT / Fold change vs veh, RNGTT / RFU, OGT / Fold change vs veh, OGT / RFU, BRD1 / Fold change vs veh, BRD1 / RFU, MARS / Fold change vs veh, MARS / RFU, ZNF655 / Fold change vs veh, ZNF655 / RFU, FAHD1 / Fold change vs veh, FAHD1 / RFU, BDP1 / Fold change vs veh, BDP1 / RFU, LRRCC1 / Fold change vs veh, LRRCC1 / RFU, ARID1A / Fold change vs veh, ARID1A / RFU, ZNF146 / Fold change vs veh, ZNF146 / RFU, ZNF330 / Fold change vs veh, ZNF330 / RFU, GPN3 / Fold change vs veh, GPN3 / RFU, C9orf123 / Fold change vs veh, C9orf123 / RFU, N4BP2L2 / Fold change vs veh, N4BP2L2 / RFU, ARFIP1 / Fold change vs veh, ARFIP1 / RFU, FAM179B / Fold change vs veh, FAM179B / RFU, BCL10 / Fold change vs veh, BCL10 / RFU, UHRF1BP1L / Fold change vs veh, UHRF1BP1L / RFU, BET1 / Fold change vs veh, BET1 / RFU, CNOT2 / Fold change vs veh, CNOT2 / RFU, ZNF268 / Fold change vs veh, ZNF268 / Fold change vs veh, ZNF507 / RFU, DGCR2 / Fold change vs veh, DGCR2 / RFU, WDSUB1 / Fold change vs veh, WDSUB1 / Fold change vs veh, HSP90B1 /// MIR3652 / RFU, ADSS / Fold change vs veh, ADSS / RFU, GK / Fold change vs veh, GK / RFU, ZNF148 / Fold change vs veh, ZNF148 / RFU, TAF9 / Fold change vs veh, TAF9 / RFU, SLC1A5 / Fold change vs veh, SLC1A5 / RFU, SLMO2 / Fold change vs veh, SLMO2 / RFU, ABCC4 / Fold change vs veh, ABCC4 / RFU, LOC101060439 /// RAP1B / Fold change vs veh, LOC101060439 /// RAP1B / RFU, RFX7 / Fold change vs veh, RFX7 / RFU, GTPBP10 / Fold change vs veh, GTPBP10 / RFU, CNEP1R1 / Fold change vs veh, CNEP1R1 / RFU, BIVM-ERCC5 /// ERCC5 / Fold change vs veh, BIVM-ERCC5 /// ERCC5 / RFU, ILF3 / Fold change vs veh, ILF3 / RFU 11762660_at / Fold change /veh 11762660_at / RFU VCAN (11757783_s_at) / Fold change /veh VCAN (11757783_s_at) / RFU DDX43 (11728927_at) / Fold change /veh DDX43 (11728927_at) / RFU KRT8 (11758188_x_at) / Fold change /veh KRT8 (11758188_x_at) / RFU NKD1 (11759106_at) / Fold change /veh NKD1 (11759106_at) / RFU SRD5A1 (11742802_a_at) / Fold change /veh SRD5A1 (11742802_a_at) / RFU TPSAB1 /// TPSB2 (11721975_s_at) / Fold change /veh TPSAB1 /// TPSB2 (11721975_s_at) / RFU GSTM3 (11746129_a_at) / Fold change /veh GSTM3 (11746129_a_at) / RFU IL23R (11737362_x_at) / Fold change /veh IL23R (11737362_x_at) / RFU TMEM51 (11727254_a_at) / Fold change /veh TMEM51 (11727254_a_at) / RFU PIWIL2 (11732686_x_at) / Fold change /veh PIWIL2 (11732686_x_at) / RFU ORM1 (11744905_x_at) / Fold change /veh ORM1 (11744905_x_at) / RFU CCDC152 (11743942_at) / Fold change /veh CCDC152 (11743942_at) / RFU ECM1 (11717891_a_at) / Fold change /veh ECM1 (11717891_a_at) / RFU IL23R (11748794_a_at) / Fold change /veh IL23R (11748794_a_at) / RFU TNFAIP8L3 (11732012_x_at) / Fold change /veh TNFAIP8L3 (11732012_x_at) / RFU MBOAT4 (11741988_at) / Fold change /veh MBOAT4 (11741988_at) / RFU 11764193_at / Fold change /veh 11764193_at / RFU TMEM53 (11763286_at) / Fold change /veh TMEM53 (11763286_at) / RFU MAGEB2 (11727129_at) / Fold change /veh MAGEB2 (11727129_at) / RFU TMEM200A (11744735_a_at) / Fold change /veh TMEM200A (11744735_a_at) / RFU CCDC152 (11751479_a_at) / Fold change /veh CCDC152 (11751479_a_at) / RFU FAM211A (11726209_a_at) / Fold change /veh FAM211A (11726209_a_at) / RFU RGS16 (11746705_a_at) / Fold change /veh RGS16 (11746705_a_at) / RFU VCAN (11755009_s_at) / Fold change /veh VCAN (11755009_s_at) / RFU RHOB (11743442_s_at) / Fold change /veh RHOB (11743442_s_at) / RFU RGS16 (11720943_a_at) / Fold change /veh RGS16 (11720943_a_at) / RFU RGS16 (11720944_at) / Fold change /veh RGS16 (11720944_at) / RFU, VPS4B / Fold change vs veh, VPS4B / RFU, CREB1 / Fold change vs veh, CREB1 / RFU, DNAJC13 / Fold change vs veh, DNAJC13 / RFU, GNAQ / Fold change vs veh, GNAQ / RFU, CDK5R1 / Fold change vs veh, CDK5R1 / RFU, ZRANB3 / Fold change vs veh, ZRANB3 / RFU, CUL4A / Fold change vs veh, CUL4A / RFU, CCNY / Fold change vs veh, CCNY / RFU, UFL1 / Fold change vs veh, UFL1 / RFU, COG3 / Fold change vs veh, COG3 / RFU, DIAPH2 / Fold change vs veh, DIAPH2 / RFU, SKA2 / Fold change vs veh, SKA2 / RFU, AFF3 / Fold change vs veh, AFF3 / RFU, LMF1 / Fold change vs veh, LMF1 / RFU, IPO11 / Fold change vs veh, IPO11 / RFU, DFFB / Fold change vs veh, DFFB / RFU, FOXP1 / Fold change vs veh, FOXP1 / RFU, CARD8 / Fold change vs veh, CARD8 / RFU, STRN3 / Fold change vs veh, STRN3 / RFU, ADK / Fold change vs veh, ADK / RFU, RASSF2 / Fold change vs veh, RASSF2 / RFU, WIPF1 / Fold change vs veh, WIPF1 / RFU, LARP1B / Fold change vs veh, LARP1B / RFU, RASA1 / Fold change vs veh, RASA1 / RFU, RB1 / Fold change vs veh, RB1 / RFU, PPFIA1 / Fold change vs veh, PPFIA1 / RFU, MAT2A / Fold change vs veh, MAT2A / RFU, CCT5 / Fold change vs veh, CCT5 / RFU, WDR92 / Fold change vs veh, WDR92 / RFU, CUX1 / Fold change vs veh, CUX1 / RFU, TTC7A / Fold change vs veh, TTC7A / RFU, TMEM135 / Fold change vs veh, TMEM135 / RFU, DEPTOR / Fold change vs veh, DEPTOR / RFU, CPM / Fold change vs veh, CPM / RFU, DNAJB6 / Fold change vs veh, DNAJB6 / RFU, CACNA2D3 / Fold change vs veh, CACNA2D3 / RFU, DTX4 / Fold change vs veh, DTX4 / RFU, TFCP2 / Fold change vs veh, TFCP2 / RFU, GMCL1 /// GMCL1P1 / Fold change vs veh, GMCL1 /// GMCL1P1 / RFU, AEBP2 / Fold change vs veh, AEBP2 / RFU, SNHG1 /// SNORD22 /// SNORD25 /// SNORD26 /// SNORD27 /// SNORD28 /// SNORD29 /// SNORD31 / Fold change vs veh, SNHG1 /// SNORD22 /// SNORD25 /// SNORD26 /// SNORD27 /// SNORD28 /// SNORD29 /// SNORD31 / Fold change (Aza/veh), C12orf56 (ProbeSet 11735607_a_at) / Fold change (ACY-1035/veh), C12orf56 (ProbeSet 11735607_a_at) / Fold change (Aza/veh), FGFR1OP (ProbeSet 11751329_s_at) / Fold change (ACY-1035/veh), FGFR1OP (ProbeSet 11751329_s_at) / Fold change (Aza/veh), VPS36 (ProbeSet 11739960_a_at) / Fold change (ACY-1035/veh), VPS36 (ProbeSet 11739960_a_at) / RFU SYPL1 (11715823_x_at) / Fold change /veh SYPL1 (11715823_x_at) / RFU IGFBP7 (11715501_s_at) / Fold change /veh IGFBP7 (11715501_s_at) / RFU REEP3 (11722064_at) / Fold change /veh REEP3 (11722064_at) / RFU IGLL1 (11728026_x_at) / Fold change /veh IGLL1 (11728026_x_at): dose or concentration left out as unconfirmed
Conditions: ProbeSet 11722022_s_at; LIST D

## Nc1ncn([C@@H]2O[C@H](CO)[C@@H](O)[C@H]2O)c(=O)n1 [azacitidine]
  Fold change vs veh, CDK5R1: 0.77
